Test results as given in US8815925B2, “Use of combination preparations comprising antifungal agents” (priority 2006, dated 2014).

Tests used:
[1] = system: Candida vulvovaginitis
Procedure: The treatment was by topical administration of suitable pharmaceutical substance combinations on the skin, or on the mucosae of the genitourinary tract and of the oropharynx, respectively. […]
(§1) Therapy with an ointment combination of Clotrimazole/Diclofenac-Na
Single dose: 5 mg of Diclofenac-Na/20 mg of Clotrimazole
Dosage regimen: initially (3 days) 3×/day ointment strips of 2.5 cm locally applied in vulva and vagina, subsequently once per day, for 4 days.
patient, suffering from chronic-recurrent Candida vulvovaginitis for years (>10 recurrences/year), otherwise healthy, prior treatment both topical (Clotrimazole, Miconazole) and systemically (Fluconazole, several times, also long-term therapy and therapy of the partner).
Initial therapy: Clotrimazole/Diclofenac (25/25 mg) supp. for 2 days, subsequently
Clotrimazole/Diclofenac as ointment as described in Case 1, for 3 days. […]

[2] = system: diaper thrush (Candida mycosis)
From the text: The treatment was by topical administration of suitable pharmaceutical substance combinations on the skin, or on the mucosae of the genitourinary tract and of the oropharynx, respectively.
as §1

[3] = system: chronic-recurrent vulvovaginitis; settings: Fluconazol 150 mg orally, long-term regimen; cited from earlier work

Clc1ccccc1C(c1ccccc1)(c1ccccc1)n1ccnc1 [Clotrimazole]
response to local treatment (monotherapy) ([1]; Case 1, during pregnancy, before the combination therapy): complete therapy resistance
response to monotherapy ([1]; Case 2, 8 days of therapy, before the combination therapy): low-grade improvement
improvement by conventional local therapy (summary) ([1]; first and third cases): no improvement
course of curing under monotherapy (summary) ([1]; second case, 8 days of intensive therapy): highly retarded
clinical picture under monotherapy (summary) ([2]; first diaper thrush case): marked deterioration
healing under monotherapy (summary) ([2]; second (mild) diaper thrush case): healing after three days

OC(Cn1cncn1)(Cn1cncn1)c1ccc(F)cc1F [Fluconazol]
cases that become recurrent after discontinuation [3]: about 50%
